Our source for the IC50 values is patent publication US8017612B2, “Piperazine compound and use thereof as a HCV polymerase inhibitor” (priority 2006, dated 2011).

As usually defined, the IC50 is the concentration that gives 50% inhibition. Read a low IC50 as greater potency in that assay.

The target of assay [1] is T1, HCV polymerase (NS5B) type 1b (Hepatitis C virus genotype 1b, UniProt P26663).
T1 construct: a region encoding NS5B (J Virol 1991 March, 65(3), 1105-13, 544 amino acids after deletion of 47 amino acids on the C-terminal); 6xHis (C); made in house; host or cells: Escherichia coli
Briefly: Assay of enzyme (HCV polymerase) inhibitory activity, type 1b enzyme. Format: biochemical, HCV BK strain (type 1b). Conditions: HCV polymerase inhibitory activity IC50, 1b, type 1b enzyme. A digest of the protocol:
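IC50 derived from [3H]UTP incorporation into TCA-insoluble RNA, compared with and without test compound. Reaction (25 °C, 60 min, Tris pH 7.5, 5 mM MgCl2): E. coli-expressed 1b NS5B Δ47 with His tag at 0.5 μg/ml, 5 μg/ml run-off substrate RNA, ATP/GTP/CTP 50 μM, UTP 2 μM.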

In assay [2] the target is T2, HCV polymerase (NS5B) type 1a (Hepatitis C virus genotype 1a, UniProt P26664).
T2 construct: made in house; host or cells: Escherichia coli (by the 'similar method' of the 1b enzyme)
Briefly: Assay of enzyme (HCV polymerase) inhibitory activity, type 1a enzyme. Format: biochemical, HCV type 1a (cloned from the blood of patients). The conditions noted are these: HCV polymerase inhibitory activity IC50, 1a, type 1a enzyme. The method, boiled down: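 Reactions ran 60 min at 25° C in 20 mM Tris-HCl pH 7.5, 5 mM MgCl2, 50 mM NaCl, holding genotype 1a NS5B (1.5 μg/ml, Δ47 C-terminus, 6His), substrate RNA 5 μg/ml, UTP 2 μM with tritiated UTP and other NTPs 50 μM. IC50 derived from incorporated radiolabel in filter-trapped RNA relative to uninhibited reaction.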

Some results are limits rather than exact numbers.

With `O=C(NCc1ccc(OC(F)(F)F)cc1)[C@H]1CN(c2nc3nc(C4CC4)ncc3s2)CCN1S(=O)(=O)c1ccc(OC(F)(F)F)cc1F` [Example 1110, (R)-4-(5-cyclopropyl-thiazolo[4,5-d]pyrimidin-2-yl)-1-(2-fluoro-4-trifluoromethoxy-benzenesulfonyl)-piperazine-2-carboxylic acid 4-trifluoromethoxy-benzylamide], the IC50 in assay [1] and in assay [2] was below 100 nM in each case.

Take `O=C(O)c1cnc(N2CCN(S(=O)(=O)c3ccc(OC(F)(F)F)cc3)[C@@H](C(=O)NCc3ccc(OC(F)F)c(F)c3)C2)cn1` [Example 1111, (R)-3-(4-difluoromethoxy-3-fluoro-benzylcarbamoyl)-4-(4-trifluoromethoxy-benzenesulfonyl)-3,4,5,6-tetrahydro-2H-[1,2′]bipyrazinyl-5′-carboxylic acid]: the IC50 in assay [1] and in assay [2] was below 100 nM each time.

With `O=C(O)CCn1ncc2sc(N3CCN(S(=O)(=O)c4ccc(OC(F)(F)F)cc4)[C@@H](C(=O)NCc4ccc(OC(F)(F)F)cc4)C3)nc2c1=O` [Example 1112, 3-{4-oxo-2-[(R)-4-(4-trifluoromethoxy-benzenesulfonyl)-3-(4-trifluoromethoxy-benzylcarbamoyl)-piperazin-1-yl]-4H-thiazolo[4,5-d]pyridazin-5-yl}propionic acid], the IC50 in assay [1] and in assay [2] was below 100 nM each time.

For the molecule `O=C(NCc1ccc(OC(F)F)c(F)c1)[C@H]1CN(c2nc3nc(C4CC4)[nH]c(=O)c3s2)CCN1S(=O)(=O)c1ccc(OC(F)(F)F)cc1` [Example 1113, (R)-4-(5-cyclopropyl-7-oxo-6,7-dihydro-thiazolo[4,5-d]pyrimidin-2-yl)-1-(4-trifluoromethoxy-benzenesulfonyl)-piperazine-2-carboxylic acid 4-difluoromethoxy-3-fluoro-benzylamide], the IC50 in assay [1] and in assay [2] was below 100 nM in each case.

`O=C(NCc1ccc(OC(F)F)c(F)c1)[C@H]1CN(c2nc3nc(C4CC4)[nH]c(=O)c3s2)CCN1S(=O)(=O)c1ccc(C(F)(F)F)cc1` [Example 1114, (R)-4-(5-cyclopropyl-7-oxo-6,7-dihydro-thiazolo[4,5-d]pyrimidin-2-yl)-1-(4-trifluoromethyl-benzenesulfonyl)-piperazine-2-carboxylic acid 4-difluoromethoxy-3-fluoro-benzylamide]: the IC50 in assay [1] and in assay [2] was below 100 nM throughout.

Consider `CC(=O)N1CCN(S(=O)(=O)c2ccc(C(C)C)cc2)C(C(=O)NCc2ccc(C(F)(F)F)cc2)C1` (stereo not shown) [Example 1115, 4-acetyl-1-(4-isopropyl-benzenesulfonyl)-piperazine-2-carboxylic acid 4-trifluoromethyl-benzylamide], for which the IC50 in assay [1] was above 1000 nM; in assay [2], 100 to 1000 nM.

In the case of `CC(=O)N1CCN(S(=O)(=O)c2ccc(C(C)C)cc2)[C@@H](C(=O)NCc2ccc(C(F)(F)F)cc2)C1` [Example 1116, (R)-4-acetyl-1-(4-isopropyl-benzenesulfonyl)-piperazine-2-carboxylic acid 4-trifluoromethyl-benzylamide], the IC50 in assay [1] and in assay [2] was 100 to 1000 nM throughout.

Turning to `CC(=O)N1CCN(S(=O)(=O)c2ccc(C(C)C)cc2)[C@H](C(=O)NCc2ccc(C(F)(F)F)cc2)C1` [Example 1117, (S)-4-acetyl-1-(4-isopropyl-benzenesulfonyl)-piperazine-2-carboxylic acid 4-trifluoromethyl-benzylamide], the IC50 in assay [1] and in assay [2] was above 1000 nM each time.

Regarding `O=C(O)Cn1ncc2sc(N3CCN(S(=O)(=O)c4ccc(OC(F)(F)F)cc4)[C@@H](C(=O)NCc4ccc(OC(F)F)c(F)c4)C3)nc2c1=O` [Example 1121], the IC50 in assay [1] and in assay [2] was below 100 nM throughout.

Take `O=C(O)c1cnc(N2CCN(S(=O)(=O)c3ccc(C(F)(F)F)cc3)[C@@H](C(=O)NCc3ccc(OC(F)F)c(F)c3)C2)cn1` [Example 1122]: the IC50 in assay [1] and in assay [2] was below 100 nM each time.

As for `NC(=O)c1cncc2sc(N3CCN(S(=O)(=O)c4ccc(OC(F)(F)F)cc4)[C@@H](C(=O)NCc4ccc(OC(F)(F)F)cc4)C3)nc12` [Example 1123], the IC50 in assay [1] and in assay [2] was below 100 nM in each case.
